Test results as given in patent EP3572468B1, “CYANINE DYES AND THEIR USAGE FOR IN VIVO STAINING OF MICROORGANISMS” (PHILIPPS-UNIVERSITÄT MARBURG, priority 2018, dated 2019).

Experiments:
[1] = target: dsDNAhAT (double-stranded DNA hairpin with the consensus sequence ATTA); assay: Fluorescence titration with hairpin dsDNAhAT, binding affinity by DynaFit; settings: 1 µM dye in 10 mM Tris pH 7.6 and 50 mM KCI, 20°C, emission at 647 nm, 1:1 binding model, read-out: binding affinity (KD, apparent dissociation constant)
Procedure: Fluorescence measurements and tritations were performed on a Jasco FP-6500 spectrofluorometer equipped with a Thermo Haake WKL 26 water recirculator at 20°C. Unless otherwise noted, a 1400 µL fluorescence cuvette of HellmaAnalytics (104F-QS) was used and the measurements were performed with the following settings: increment: 1.0 nm; integration time: 0.2 s; speed: 500 nm/min; sensitivity: medium; excitation slit width: 3 nm; emission slit width: 3 nm; excitation wavelength 610 nm. The emission spectra were recorded from 625 to 750 nm at 20°C. From all spectra, the corresponding background signal was substracted. […] Table 1: Binding sites and sequences of DNA hairpins, which were used for fluorescence titrations experiments.
All fluorescence titrations followed the same procedure: to 1 mL of 1 µM solution of corresponding cyanine dye derivative in 10 mM Tris pH 7.6 and 50 mM KCI aliquots of a stock solution of the corresponding annealed DNA (dsDNAhAT and dsDNAhGC = 435 µM; dsDNACT = 0.65 mM) were successively added and the fluorescence spectra were recorded in a range from 625-750 nm after 1 min of each addition. […] The fluorescence emission plotted is the resulting mean of the three independent measurements. […]
All binding affinities were determined by fitting the obtained experimental data in the DynaFit 4.0 software. […]

[2] = system: dsDNACT; assay: UV-Vis absorbance titration with dsDNACT; format: binding, calf; settings: addition of dsDNACT (< 2.5 eq of DNA); 12.3 µM dye in 10 mM Tris pH 7.6 and 50 mM KCI
Procedure: UV-Vis titration measurements were performed on a Jasco V-650 UV-Vis spectrophotometer equipped with a Jasco PAC-743 temperature controlled cell holder and a Julabo F250 cooling system to maintain the temperature constant at 20°C during the measurements. UV-Vis titration measurements were performed in a 500 µL quarz cuvette with a pathlength of 1 cm at 20°C. The absorbance spectra were recorded from 400 nm to 800 nm.
UV-Vis titration measurements were performed at a concentration of 12.3 µM of the dye in 10 mM Tris pH 7.6 and 50 mM KCI. Increasing aliquots of a 1.54 mM and 15.4 mM stock solutions of dsDNACT were successively added and the absorbance spectra were recorded in a range from 400-800 nm after 1 min of each addition. Three independent measurements were carried out. The presented spectra are the resulting mean of the three independent measurements.

[3] = Molar extinction coefficient determination; format: physicochemical; settings: in milli-Q water; absorbance maximum at 625 nm
Procedure: The concentration determination and measurement of full UV-Vis spectra were performed on a Tecan 20M at room temperature. The measurements were performed in a 1400 µL quarz cuvette with a pathlength of 1 cm in a volume of 1 mL.
For the accurate determination of our compounds 6-TramTO-3 the extinction coefficient was calculated. A specific amount (< 2.00 mg) of the compound was weighted on a Mettler Toledo XP6 and dissolved in a known amount of milli-Q water. Increasing amounts of such stock solution were added into a 1 mL cuvette filled with 1 ml of milli-Q water. The corresponding absorbance of each addition was measured on a Tecan Spark 20M at the maximum at 625 nm and without exceeding 10% of the initial volume. In all the cases the absorbance was between 0.1 and 1 AU. to be in concordance with Lambert-Beer law (equation E2). A = ε l c [formula]
In this equation (E2): A = absorbance of the solution; I = length of the cuvette; c = concentration; ε = molar extinction coefficient.
The lineal regression of the obtained absorbance measurements versus the concentrations of 6-TramTO-3 allowed us to obtain the molar extinction coefficient. These measurements were repeated three times independently i.e. from three different stock solutions. The mean extinction coefficient and the standard deviation of 6-TramTO-3 at a wavelength of 625 nm in milli-Q water was 59403 ±646 M^-1cm^-1.
The mean extinction coefficient and the standard deviation of 6-NH2TO-3 and 6-AzTO-3 were determined following the above described procedure. The extinction coefficient of 6-NH2TO-3 was determined in milli-Q water, whereas the extinction coefficient of 6-AzTO-3 was determined in DMSO due to its low aqueous solubility. […] For the spectrum of 6-AzTO-3 1% of DMSO was added for a better solubility. Fig. 20 and Fig. 21 show the linear regressions from the three independent measurements. Table 4 summarized the molar extinction coefficient obtained. Table 4: Determined mean extinction coefficients and standard deviations of 6-AzTO-3 in DMSO and 6-TramTO-3 and 6-NH2TO-3 in milli-Q water.

## CC[n+]1ccc(/C=C/C=C2\Sc3ccccc3N2CCCCCCn2cc(CN)nn2)c2ccccc21.[I-] [6-TramTO-3, 4-((1E,3Z)-3-(3-(6-(4-(aminomethyl)-1H-1,2,3-triazol-1-yl)hexyl)benzo[d]thiazol-2(3H)-ylidene)prop-1-en-1-yl)-1-ethylquinolin-1-ium iodide]
[1]
  Kd: 0.114 ± 0.03 µM
[2]
  blue shift of the absorption maximum: 102 nm
[3]
  mean extinction coefficient: 59403 ± 646 M⁻¹ cm⁻¹
